pIC50: −log10 of the molar value. “Also recorded” adds a separate entry of the source.
Key:
GLT-1 = assay: Western blot GLT-1 expression in NAc-core, NAc-shell and liver (50 mg/kg study); format: in vivo, P rats; settings: MC-100093 50 mg/kg or ceftriaxone 200 mg/kg i.p. 5 days; for Protein expression of GLT-1 in the NAc-shell: vs Ethanol group
Procedure: (§1) We used micro-punch procedure to dissect the subregions of the NAc such as NAc-core and NAc-shell as well as the subregions of prefrontal cortex such as infralimbic (IL) and prelimbic (PL) from the brain on day 6 after the last injection day. P rats were removed from the cage and rapidly euthanized by CO2 inhalation followed by rapid decapitation with a guillotine. Brains were isolated and immediately frozen on dry ice and stored at −80° C. The stereotaxic coordinates provided by Paxinos and colleague's rat brain stereotactic atlas was used to isolate NAc-core and NAc-shell using a cryostat apparatus (−20° C.), which then kept at −80° C. for later western blot analyses.
(§2) Western Blot assay was performed to measure changes in the expression of GLT-1, xCT, mGluR1, mGluR5, PPAR-α, PPARγ, GAPDH and β-tubulin in the NAc-core and NAc-shell as described in previous publications. A lysis buffer containing protease and phosphatase inhibitors was used to generate a homogenate of liver, Nac-core, and Nac-shell samples. The amount of protein was quantified using a detergent compatible protein assay (Bio-Rad, Hercules, CA, USA) for each sample. Samples were mixed with laemmli dye and loaded with equal amounts on polyacrylamide gels (10%), which separated the proteins using electrophoresis. After that, polyvinylidene difluoride (PVDF) membranes were used to transfer the proteins electrophoretically from the gels. Membranes were incubated in 5% free-fat milk in Tris-buffered saline with Tween-20 (TBST) for 30-60 minutes at room temperature. Membranes were then incubated with appropriate primary antibodies overnight at 4° C.: rabbit anti-GLT-1 (1:5000, Abcam, ab41621), rabbit anti-xCT (1:2000, Abcam, ab175186), rabbit anti-mGluR1 (1:1000, Abcam, ab82211), rabbit anti-mGluR5 (1:1000, Abcam, ab76316), rabbit anti-PPAR-α (1:1000, Abcam, ab24509), and rabbit anti-PPARγ (1:1000, Abcam, ab209350). Mouse anti-β-tubulin (1:1000; BioLegend) was used as a loading control antibody for the brain samples and rabbit anti-GAPDH (1:5000; cell signaling) was used as a loading control antibody for the liver samples. Membranes were washed five times on the next day with TBST followed by incubation with appropriate secondary antibody (1:5000) for 90 minutes at room temperature. Chemiluminescent reagents (Super Signal West Pico, Pierce Inc.) were used to detect the proteins using a GeneSys imaging system to develop the digitized blot images. Water-control group data were represented as 100% and all other values were expressed relative to control group to detect changes in the expression of the protein of interest in the brain and liver samples.
All statistical analyses were conducted with Graphpad Prism software, with p-values of 0.05 or less being statistically significant. We performed a two-way (mixed model) ANOVA followed by Bonferroni multiple comparison post-hoc test to analyze 24 h ethanol consumption, 24 h water consumption, and daily body weight. For the Western blot and oil red O staining analysis, we performed one-way ANOVA with Newman-Keuls as a post hoc multiple comparison test to measure differences between groups as a percentage (relative to control values).

PPAR-α = assay: Western blot PPAR-α expression in NAc-core, NAc-shell and liver; format: in vivo, P rats; settings: MC-100093 50 mg/kg or ceftriaxone 200 mg/kg i.p. 5 days; among all groups
Procedure: as §1, §2
All statistical analyses were conducted with Graphpad Prism software, with p-values of 0.05 or less being statistically significant. […]

[1] = Ethanol-intake model (section C); format: in vivo, Male P rats
Procedure: Male P rats were obtained from Indiana University School of Medicine (Indianapolis, IN, USA). P rats were ˜90 days old at the beginning of the drinking paradigms. P rats were used in this study as they fit the necessary criteria of ethanol preference. P rats may consume freely ethanol (15% and 30%, v/v) and achieve a pharmacologically blood alcohol concentration (BACs) of 50-200 mg % as shown in previous studies from Indiana University. Rats were housed in a room kept at 21° C. on a 12/12-hour light/dark cycle and had free access to water and food. All experimental procedures were approved by the Institutional Animal Care and Use Committee (IACUC) at University of Toledo under protocol #400160, in accordance with all guidelines of IACUC of the National Institute of Health, and the Guide for the Care and Use of Laboratory Animals.
Rats were assigned to three groups prior to the start of the experiments based on their weights, and the average weights of each group were similar between all groups. Male P rats were divided into three groups: a) Control/water group was exposed to water for five weeks and received saline vehicle injection (i.p.) every 24 hours during Week 6 for a total of five days; b) Ethanol/saline group was exposed to free choice of ethanol (15% and 30%, v/v) as well as water for 5 weeks and received saline vehicle (i.p.) every 24 hours during Week 6 for a total of five days; c) Ethanol/MC-100093 group was exposed to free choice of ethanol (15% and 30%, v/v) as well as water for 5 weeks and received MC-100093 (100 mg/kg, i.p.) every 24 hours during Week 6 for 5 days (FIG. 16). […]
The baseline was calculated by taking the average of the prior 5 weeks of water and ethanol consumption as rat weight. […] As weights of the bottles were recorded, the measurements were converted using g of ethanol intake/kg of body weight/day formula to determine ethanol consumption in g/kg of body weight. […]
Statistical analyses were performed using GraphPad Prism Version 10. […] Statistical significance was determined by a p-value of or less than 0.05.

glutamate uptake = settings: astrocyte-neuron co-culture model, cited from earlier work
plasma protein = settings: cited from earlier work

C[C@@H](O)[C@H]1C(=O)N[C@@H]1[C@@H](C)C(=O)N1CCN(C)CC1 [MC-100093]
Protein expression of GLT-1 in the liver (GLT-1): normalized GLT-1 level; also recorded: normalize the PPAR-α and GLT-1 levels in the liver | Protein expression of GLT-1 in the NAc-core (GLT-1; among Control, Ethanol, Ethanol-MC, Ethanol-CEF): non-significant difference; also recorded: no significant difference | Protein expression of GLT-1 in the NAc-shell (GLT-1): normalized GLT-1 and xCT levels in the NAc-shell | Protein expression of GLT-1 in the NAc-shell (GLT-1; listed as MC-100095): significantly increased | Protein expression of PPAR-α in the NAc-core (PPAR-α): non-significant differences; also recorded: did not detect significant changes | Protein expression of PPAR-α in the NAc-shell (PPAR-α): non-significant differences; also recorded: did not detect significant changes | Water intake ([1]; male P rats exposed to ethanol, 100 mg/kg i.p., day 5, 100 mg/kg): significant increase in water intake; also recorded: drank significantly more water than the ethanol/saline group | Body weight ([1]; male P rats, 100 mg/kg i.p. 5 days): no significant effect of Treatment by Day interaction on body weight | Ethanol intake ([1]; male P rats, 100 mg/kg i.p. days 1-5 of Week 6, vs saline vehicle, 100 mg/kg): reduced ethanol intake after 5-week drinking regimen; also recorded: significant decrease in ethanol intake; also recorded: reduced ethanol intake in P rats staring 24 hours after the first injection of the drug through the five days regimen; also recorded: robust effect in ethanol intake | Enhancement of glutamate uptake (glutamate uptake): 23.5% | pIC50 (glutamate uptake; read-out: IC50 (enhancement of glutamate uptake)): 7.00 | Binding to plasma protein (plasma protein): low binding to plasma protein

— patent publication US20250057808A1, “COMPOSITION COMPRISING BETA LACTAM FOR TREATING ALCOHOL DEPENDENCE AND ALCOHOL ASSOCIATED DISEASES OR CONDITIONS” (Temple University of the Commonwealth System of Higher …, priority 2023, published 2025)
